Test results published in US8067032B2, “Method for preparing submicron particles of antineoplastic agents” (Baxter International Inc., priority 2000, dated 2011).
≈ marks a conversion by molar mass, not a printed value.

Experiment: Solubility of itraconazole in NMP
Format: physicochemical
Conditions: organic solvent or mixture, room temperature (approximately 22° C.)
Experimental: Sample preparation. […] A 0.20 g/mL drug concentrate solution was prepared by dissolving 2.0 g of itraconazole and 0.2 g Poloxamer 188 in 10 mL NMP with heat and stirring. This solution was then allowed to cool to room temperature to yield a supersaturated solution. A microprecipitation experiment was immediately performed in which 1.5 mL of the drug concentrate was added to 30 mL of an aqueous solution containing 0.1% deoxycholate, 2.2% glycerol. The aqueous solution was maintained at ˜2° C. and a stir rate of 350 rpm during the addition step. The resulting presuspension was homogenized at ˜13,000 psi for approx. 10 minutes at 50° C. The suspension was then centrifuged, the supernatant decanted, and the solid crystals dried in a vacuum oven at 30° C. for 135 hours.

solubility: 160 mg/mL (≈ 227 mM)
SMILES: CCC(C)n1ncn(-c2ccc(N3CCN(c4ccc(OCC5COC(Cn6cncn6)(c6ccc(Cl)cc6Cl)O5)cc4)CC3)cc2)c1=O (stereo not shown) [itraconazole]
